These results are taken from US20110100079A1, “METHOD FOR IMPARTING STRESS TOLERANCE TO PLANT” (priority 2007, published 2011).

Common to all, as to type: in vivo
In experiment [1] the test system is “Momotaro” tomato. Put plainly: Example 6 salt stress test (tomato), soil culture. The note with it: 23° C., 100 ppm, 2 weeks; for Fresh weight, relative value (untreated plot = 100), Test 1: EC 1.3 mS/cm; for Fresh weight, relative value (untreated plot = 100), Test 4: pF 1.7, five-leaf stage; for Fresh weight, relative value (untreated plot = 100), Test 3: EC 3 mS/cm. As for the experimental part:
(1) A. soil culture (a) Comparative example conditions (stress-free optimum growth conditions) Cultivation temperature: 23° C., EC: 1.0 mS/cm (cultivation with Kureha gardening soil), pF value: 1.7 (capillaries in a saturated state) (b) Example conditions (salt stress conditions) Cultivation temperature: 23° C., EC: 1.3, 2.0, 3.0 mS/cm (cultivation with Kureha gardening soil), pF value: 1.7 (capillaries in a saturated state)
(§1) (a) Comparative example conditions (stress-free optimum growth conditions) Cultivation temperature: 23° C., EC: 1.3 mS/cm (Otsuka ½A formulation) (b) Example conditions (salt stress conditions) Cultivation temperature: 23° C., EC: 2.7, 3.9, 4.8 mS/cm (cultivation with Kureha gardening soil) (2) Illuminance: 5000 Lux (fluorescent light), light/dark cycle: 16 hours/8 hours (3) Employed soil: Kureha gardening soil manufactured by Kureha Corporation (fertilizer components: N:P:K=0.4:1.9:0.6 g/kg soil) (4) Employed solution culture medium: Otsuka ½A formulation: a mixed solution of Otsuka House No. 1 (N:P:K=10:8:27) 7.5 g/10 L and Otsuka House No. 2 (N:P:K:Ca=10:0:0:23) 5 g/10 L, total nitrogen: 130 ppm, phosphoric acid: 60 ppm, potassium: 203 ppm) (5) Cultivation period: 2 weeks (6) Plant preparation: A 50-cell tray was filled with Kureha gardening soil manufactured by Kureha Corporation (fertilizer components: N:P:K=0.4:1.9:0.6 g/kg soil), and seeds of a “Momotaro” tomato or tubers of a “Danshaku” potato were sowed, thinly covered with Kureha gardening soil, and sufficiently watered to allow the seeds or the tubers to sprout. When the leaves in the 2-leaf stage or the 5-leaf stage fully unfolded, the soil on the tomato roots or the potato roots was carefully washed away with running water, and a test was performed. (7) Test chemicals: POE (20) sorbitan monolauric acid ester: Reodol TW-L120 (Kao Corporation) POE (20) sorbitan monopalmitic acid ester: Reodol TW-P120 (Kao Corporation) POE (20) sorbitan monostearic acid ester: Reodol TW-S120 (Kao Corporation) POE (20) sorbitan monooleic acid ester: Reodol TW-O120 (Kao Corporation) Sorbitan monooleic acid ester: Emasol 0-10(F) (Kao Corporation) POE (6) sorbitan monooleic acid ester: Reodol TW-O106 (Kao Corporation) Alkyl (number of carbon atoms: 10) polyglucoside: AG-10LK (Kao Corporation) Alkyl (number of carbon atoms: 12 to 14) polyglucoside: AG-124 (Kao Corporation) Sucrose fatty acid ester (number of carbon atoms: C18, HLB: 5): S-570 (Mitsubishi-Kagaku Foods Corporation) Sucrose fatty acid ester (number of carbon atoms: C18, HLB: 9): S-970 (Mitsubishi-Kagaku Foods Corporation) Sucrose fatty acid ester (number of carbon atoms: C18, HLB: 11): S-1170 (Mitsubishi-Kagaku Foods Corporation) Sucrose fatty acid ester (number of carbon atoms: C18, HLB: 15): 5-1570 (Mitsubishi-Kagaku Foods Corporation) Sucrose fatty acid ester (number of carbon atoms: C16, HLB: 15): P-1570 (Mitsubishi-Kagaku Foods Corporation) Sucrose fatty acid ester (number of carbon atoms: C18:1, HLB: 15): O-1570 (Mitsubishi-Kagaku Foods Corporation) (8) Amount of treatment solution applied: 10 ml/specimen for leaf spraying, 250 ml/specimen for hydroponic culture (treatment of underground portion) (9) 50 ml/specimen for soil culture (treatment of underground portion)
The environmental conditions in a climatic chamber were controlled so as to have a temperature of 23° C., an illuminance by a fluorescent light of 5000 Lux, and a daily light-dark cycle of a 16-hour light period and an 8-hour dark period. Tomatoes as prepared above were transplanted in size-3 (9 cm) pots. During the test period, the EC value was controlled by adding a suitable amount of a 10% NaCl solution once a day so as to attain a specific salt stress value. A treatment solution containing a compound of Table 1 in a specific concentration (the remainder was water) was prepared and sprayed onto the leaves or applied to the underground portions. […]

Experiment [2] relates to “Momotaro” tomato. As to the kind of experiment: Example 6 salt stress test (tomato), hydroponic culture. The conditions noted are these: 23° C., 100 ppm, 2 weeks; for Fresh weight, relative value (untreated plot = 100), Test 5 / Fresh weight, relative value (untreated plot = 100), Test 8 / Fresh weight, relative value (untreated plot = 100), Test 6 / Fresh weight, relative value (untreated plot = 100), Test 7: hydroponic culture; for Fresh weight, relative value (untreated plot = 100), Test 5: EC 2.7 mS/cm; for Fresh weight, relative value (untreated plot = 100), Test 5 / Fresh weight, relative value (untreated plot = 100), Test 6 / Fresh weight, relative value (untreated plot = 100), Test 7 / Fresh weight, relative value (untreated plot = 100), Comparison 2: two-leaf stage; for Fresh weight, relative value (untreated plot = 100), Test 8 / Fresh weight, relative value (untreated plot = 100), Test 6: EC 3.9 mS/cm; for Fresh weight, relative value (untreated plot = 100), Test 8: five-leaf stage; for Fresh weight, relative value (untreated plot = 100), Test 7: EC 4.8 mS/cm; for Fresh weight, relative value (untreated plot = 100), Comparison 2: stress-free: hydroponic culture, EC 1.3 mS/cm. As for the experimental part:
as §1
The environmental conditions in a climatic chamber were controlled so as to have a temperature of 23° C., an illuminance by a fluorescent light of 5000 Lux, and a daily light-dark cycle of a 16-hour light period and an 8-hour dark period. Tomatoes as prepared above were planted in 250 ml polyethylene bottles each filled with a solution culture medium having a different EC value. Different EC values were achieved by taking a ½ Otsuka A formulation having an EC value of 1.3 as a standard and suitably increasing the fertilizer concentration through proportional counting. A treatment solution containing a compound of Table 1 in a specific concentration (the remainder was water) was prepared and sprayed onto the leaves or applied to the underground portion. In each test plot, 10 specimens were prepared for replication, and the average of the fresh weight of each specimen 2 weeks after the beginning of the test was calculated and expressed as a relative value where “100” indicates a result identical to that of the untreated plot of a given EC condition. […]

For the next experiment, the system named is potato. As to the kind of experiment: Example 9 drying stress test (potato), soil culture. The conditions noted are these: 23° C., 100 ppm, 2 weeks; for Fresh weight, relative value (untreated plot = 100), Test 1 / Fresh weight, relative value (untreated plot = 100), Test 4 / Fresh weight, relative value (untreated plot = 100), Test 2 / Fresh weight, relative value (untreated plot = 100), Test 3: potato soil culture; for Fresh weight, relative value (untreated plot = 100), Test 1: EC 1, pF 2.8, two-leaf stage; for Fresh weight, relative value (untreated plot = 100), Test 4: EC 1, pF 3.5, five-leaf stage; for Fresh weight, relative value (untreated plot = 100), Test 2: EC 1, pF 3.5, two-leaf stage; for Fresh weight, relative value (untreated plot = 100), Test 3: EC 1, pF 4.1, two-leaf stage; for Fresh weight, relative value (untreated plot = 100), Comparison 1: stress-free: potato soil culture, EC 1, pF 1.7, two-leaf stage. As for the experimental part: The environmental conditions in a climatic chamber were controlled so as to have a temperature of 23° C., an illuminance by a fluorescent light of 5000 Lux, and a daily light-dark cycle of a 16-hour light period and an 8-hour dark period. Potatoes as prepared above were transplanted in size-5 (15 cm) pots. During the test period, the pF value was controlled by adding a suitable amount of tap water once a day so as to attain a specific drying stress value. A treatment solution containing a compound of Table 5 in a specific concentration (the remainder was water) was prepared and sprayed onto the leaves or applied to the underground portions. […] A comparative example was constructed to reflect the drying stress-free optimum cultivation conditions to investigate the plant energizing ability. […] Moreover, when the products of the present invention and the comparative products were compared, the stress tolerance imparting ability of the products of the present invention was higher in respective drying stress conditions.

The mark [3] stands for this setting: soil culture, pF 1.7, two-leaf stage, underground portion.
The mark [4] stands for this setting: soil culture, pF 1.7, two-leaf stage, leaf.

As for `O=C(O)[C@@H]1CCCN1` [Comparative product 2, Proline, reference compound], in the experiment on “Momotaro” tomato [1] (setting [3]), the “Fresh weight, relative value (untreated plot = 100), Test 1” value (shortened to “Fresh weight, relative value … Test 1”) was found to be 103 and the “Fresh weight, relative value (untreated plot = 100), Test 3” value (shortened to “Fresh weight, relative value … Test 3”) is listed as 100. Also, the “Fresh weight, relative value (untreated plot = 100), Test 4” value (shortened to “Fresh weight, relative value … Test 4”) with “Momotaro” tomato [1] (soil culture, EC 2 mS/cm, underground portion) was 100. Further, in the experiment with “Momotaro” tomato [2] (leaf), the “Fresh weight, relative value (untreated plot = 100), Test 5” value (shortened to “Fresh weight, relative value … Test 5”) came out at 102; the “Fresh weight, relative value (untreated plot = 100), Test 8” value (“Fresh weight, relative value … Test 8” below) came to 101; the “Fresh weight, relative value (untreated plot = 100), Test 6” value (from here on “Fresh weight, relative value … Test 6”) is 102; the “Fresh weight, relative value (untreated plot = 100), Test 7” value (shortened to “Fresh weight, relative value … Test 7”) is reported as 102. Besides, the “Fresh weight, relative value (untreated plot = 100), Comparison 2” value (“Fresh weight, relative value … Comparison 2” below) with “Momotaro” tomato [2] (leaf) is recorded as 102. In addition, in the experiment with “Momotaro” tomato [2] (underground portion), the “Fresh weight, relative value … Test 5” value is given as 103; the “Fresh weight, relative value … Test 8” value is given as 100; the “Fresh weight, relative value … Test 6” value came to 103; the “Fresh weight, relative value … Test 7” value is recorded as 102. In the experiment on “Momotaro” tomato [2] (underground portion), the “Fresh weight, relative value … Comparison 2” value was 103. In the experiment with potato (leaf), the “Fresh weight, relative value … Test 1” value worked out at 102; the “Fresh weight, relative value … Test 4” value was found to be 101; the “Fresh weight, relative value (untreated plot = 100), Test 2” value (“Fresh weight, relative value … Test 2” below) amounted to 102; the “Fresh weight, relative value … Test 3” value is 101. Also, in the experiment with potato (leaf), the “Fresh weight, relative value (untreated plot = 100), Comparison 1” value (“Fresh weight, relative value … Comparison 1” below) is 101. Moreover, in the experiment on potato (underground portion), the “Fresh weight, relative value … Test 1” value was 102; the “Fresh weight, relative value … Test 4” value worked out at 100; the “Fresh weight, relative value … Test 2” value is reported as 102; the “Fresh weight, relative value … Test 3” value was 101. In the experiment with potato (underground portion), the “Fresh weight, relative value … Comparison 1” value was determined as 102.
For `C[N+](C)(C)CC(=O)[O-]` [Comparative product 3, Glycine betaine, reference compound], in the experiment with “Momotaro” tomato [1] (setting [4]), the “Fresh weight, relative value … Test 1” value is on record as 103 and the “Fresh weight, relative value … Test 3” value is 103. In the experiment on “Momotaro” tomato [1] (soil culture, EC 2 mS/cm, leaf), the “Fresh weight, relative value … Test 4” value worked out at 101. Moreover, the “Fresh weight, relative value … Test 2” value with “Momotaro” tomato [1] (soil culture, EC 2 mS/cm, pF 1.7, two-leaf stage, leaf) came to 103. Besides, in the experiment on “Momotaro” tomato [1] (stress-free: soil culture, EC 1 mS/cm, pF 1.7, two-leaf stage, leaf), the “Fresh weight, relative value … Comparison 1” value came out at 102. In the experiment on “Momotaro” tomato [2] (leaf), the “Fresh weight, relative value … Test 5” value worked out at 103; the “Fresh weight, relative value … Test 8” value was 101; the “Fresh weight, relative value … Test 6” value is 103; the “Fresh weight, relative value … Test 7” value is reported as 102. For the same compound, the “Fresh weight, relative value … Comparison 2” value in the experiment on “Momotaro” tomato [2] (leaf) is given as 102. In addition, in the experiment with potato (leaf), the “Fresh weight, relative value … Test 1” value was determined as 102; the “Fresh weight, relative value … Test 4” value stood at 101; the “Fresh weight, relative value … Test 2” value is listed as 102; the “Fresh weight, relative value … Test 3” value turned out to be 102. For the same compound, the “Fresh weight, relative value … Comparison 1” value in the experiment on potato (leaf) is listed as 102.
Take `OC[C@H]1O[C@H](OC[C@H]2O[C@H](O[C@]3(CO)O[C@H](CO)[C@@H](O)[C@@H]3O)[C@H](O)[C@@H](O)[C@@H]2O)[C@H](O)[C@@H](O)[C@H]1O` [Comparative product 4, Raffinose, reference compound]: in the experiment on “Momotaro” tomato [2] (leaf), the “Fresh weight, relative value … Test 5” value is reported as 103; the “Fresh weight, relative value … Test 8” value was found to be 102; the “Fresh weight, relative value … Test 6” value is given as 103; the “Fresh weight, relative value … Test 7” value is reported as 103. The “Fresh weight, relative value … Comparison 2” value in the experiment on “Momotaro” tomato [2] (leaf) was 102. Besides, in the experiment on potato (leaf), the “Fresh weight, relative value … Test 1” value is on record as 103; the “Fresh weight, relative value … Test 4” value was found to be 101; the “Fresh weight, relative value … Test 2” value worked out at 103; the “Fresh weight, relative value … Test 3” value came out at 103. Moreover, the “Fresh weight, relative value … Comparison 1” value in the experiment with potato (leaf) turned out to be 102.
Regarding “Alkyl (C12-14) polyglycoside [Product of present invention 16]”, in the experiment on potato (leaf), the “Fresh weight, relative value … Test 1” value amounted to 120; the “Fresh weight, relative value … Test 4” value was 132; the “Fresh weight, relative value … Test 2” value turned out to be 140; the “Fresh weight, relative value … Test 3” value came out at 120. Further, the “Fresh weight, relative value … Comparison 1” value with potato (leaf) is 101.
